Data reported in patent US12606529B2, “Sulfur and amide tropolone inhibitors of nucleotidyl transferases and uses therefor” (Saint Louis University, priority 2019, dated 2026).
In brackets after ≈: the same amount, converted by molar mass. Where two headings read alike, the source gives them in different places.

Columns and labels:
HSV-1 = experiment: Anti-HSV-1 replication assay (Vero cells, plaque titer); type: cell-based, herpes simplex virus 1; conditions: for log reduction at 1 µM / log reduction at 5 µM / log reduction at 0.33 µM: Human alphaherpesvirus 1, Vero, values separated by / are repeats; for log reduction at 1 µM: compound at 1 μM, read-out: HSV-1 suppression 1 μM; for log reduction at 5 µM: compound at 5 μM, read-out: HSV-1 suppression 5 μM; for log reduction at 0.33 µM: compound at 0.33 μM, read-out: HSV-1 suppression 0.33 μM
HBV replication = HBV replication inhibition in HepDES19 cells (strand-preferential qPCR); conditions: for EC50: Hepatitis B virus; for SI (CC50/EC50): cytotoxicity CC50 over HBV replication EC50
Experimental: Cells used for toxicity and HBV studies.
HBV replication inhibition studies. HepDES19 cells were seeded in 96-well plates at 4×10^4 cells per well in the absence of tetracycline. Test compounds in a final DMSO concentration of 1% were applied to cells 48 hours after induction of HBV replication and cells were incubated with compounds for 72 hours. Cells were washed in 200 μL of phosphate buffered saline (PBS) and lysed in 150 μL of core lysis buffer (10 mM Tris pH 7.4, 1% Tween20, 150 mM NaCl). Cells were incubated at room temperate on an orbital shaker at 350 rpm for 40 minutes. Cell lysate was transferred to a 96 well polymerase chain reaction (PCR) plate and centrifuged at 3300×g for 5 minutes. The supernatant (50 μL) from the cell lysate was transferred to a 96-well PCR plate and mixed with 20 units of micrococcal nuclease and 100 μM CaCl2. The lysate was incubated for 1 hour at 37° C., and then the nuclease was inactivated at 70° C. for ten minutes. Qiagen protease (0.005 Anson units) was added to the lysate and the mixture was incubated overnight. Qiagen protease was then inactivated at 95° C. for ten minutes.
The crude lysate was used as the template for strand-preferential quantitative polymerase chain reaction (q-PCR) analysis. Quantitative PCR was performed with 40 cycles of 95° C. for 15 s and 60° C. for 1 minute employing the Kappa Probe Force universal PCR master mix.

in vitro = conditions: human, HepDES19 cells, MTT
[1] = system: C. neoformans var. grubii, KN99; experiment: C. neoformans growth inhibition assay (limiting dilution); type: cell-based, Cryptococcus neoformans; conditions: Cryptococcus neoformans
Summary of the method: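 Growth read as OD650 after 48 h unshaken culture at 35° C, resuspending cells before reading; inoculum OD650 0.001 in pH 7.0 MOPS-buffered YNB, 0.2% dextrose, 1% DMSO. MIC defined at 80% growth inhibition versus vehicle, values averaged from two or more independent triplicate runs.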

human RNaseH1 = molecular target: T1, human RNaseH1 (Homo sapiens, UniProt O60930); experiment: Biochemical inhibition of human RNaseH1 activity; conditions: for SIApparent (huRH1 IC50/EC50): huRH1 IC50 over HBV replication EC50
T1 sequence (O60930 1-286): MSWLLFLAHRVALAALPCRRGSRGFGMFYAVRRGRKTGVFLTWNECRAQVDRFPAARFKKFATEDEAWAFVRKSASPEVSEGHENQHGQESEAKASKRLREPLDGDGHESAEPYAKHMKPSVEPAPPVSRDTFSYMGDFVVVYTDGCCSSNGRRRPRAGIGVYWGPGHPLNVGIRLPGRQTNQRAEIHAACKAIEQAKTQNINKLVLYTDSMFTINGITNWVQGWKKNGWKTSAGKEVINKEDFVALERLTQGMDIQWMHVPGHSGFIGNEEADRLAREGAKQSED
Summary of the method: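 Human enzyme (0.3 μg) with 100 nM RNA:DNA molecular-beacon substrate, 50 mM HEPES pH 8.0, 100 mM NaCl, 2 mM TCEP, compounds 0 to 500 μM, 5% DMSO; started with 5 mM MgCl2, fluorescence read at 37° C. HBV enzyme (C-terminally truncated MBP-HRHgtCΔ5) run in FRET format, monitored 90 min at 37° C., initial rates calculated.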

HSV-2 = experiment: Anti-HSV-2 replication assay (Vero cells, plaque titer); type: cell-based, herpes simplex virus 2; conditions: Table 3 sulfur compounds; compound at 5 μM
Experimental: HSV strains and cells used for HSV studies. […] HSV-1 and HSV-2 are de-identified clinical isolates from the Saint Louis University Hospital. Stocks were prepared after a single passage in cell culture and were titered by standard plaque assay (Knipe and Spang, 1982). Wild-type HSV-2 was laboratory strain 333. The TK-deficient mutant of HSV-2 strain 333, ΔTK−, contains a 180-bp KpnI-KpnI deletion in the UL23 open reading frame that abrogates TK activity (McDermott, et al, 1984). ΔTK− was the generous gift of Jim Smiley. Virus stocks were grown and titered on Vero cells (Morrison and Knipe, 1996).
Anti-HSV-1 and —HSV-2 replication assay. Compounds to be screened were diluted in PBS supplemented to contain 2% newborn calf serum and 1% glutamine and added in 100 μL volume to confluent cell monolayers in 24-well cluster plates Immediately thereafter HSV-1 and HSV-2, diluted in the supplemented PBS medium, were added to the wells in 50 μl volume such that the final concentration of compound was 50 μM and 5 μM and the multiplicity of infection was 0.1. The plates were incubated at 37° C. for 1 hour and then virus-containing inoculum was removed and the wells were washed once in PBS. Compounds, diluted to 50 μM and 5 μM in DMEM supplemented to contain 2% newborn calf serum and 1% each penicillin/streptomycin, were added at 0.5 mL/well. Plates were incubated at 37° C. an additional 23 hr, and then the plates were visually inspected through a phase contrast microscope for cytopathic effect, and for toxic effect. […] The entire contents of each well were collected by scraping. Samples were frozen at −80° C., and then subsequently thawed, sonicated, and infectious virus titer was determined by standard plaque assay on Vero cell monolayers. Because the compounds were dissolved at 10 mM in 100% DMSO, equivalent dilutions of DMSO were added to additional wells as a control for effects of the diluent. Each experiment was repeated once.

[2] = HepDES19, read-out: HBV EC50, Table 3 sulfur compounds, HBV replication, HepDES19 cells
[3] = 48 h, Table 3 sulfur compounds, 48 h, 35° C., read-out: C. neoformans MIC80
[4] = Table 3 sulfur compounds, read-out: Hu RNaseH IC50
[5] = HepDES19, 72 h, Table 2 amides, HBV replication, HepDES19 cells, plus-polarity DNA, 72 h
[6] = 48 h, Table 2 amides, 48 h, 35° C., tested 0.19 to 50 μM, read-out: C. neoformans MIC80
[7] = Table 2 amides, read-out: HuRH1 IC50

| Structure (SMILES) | log reduction at 1 µM (HSV-1; Table 3 sulfur compounds) | log reduction at 5 µM (HSV-1; Table 3 sulfur compounds) | EC50 (HBV replication; [2]) [µM] | CC50 at 24 h (in vitro; CC50, Table 3 sulfur compounds) [µM] | MIC80 [1, 3] [µM] | IC50 (human RNaseH1; [4]) [µM] | log reduction at 5 µM (HSV-1; Table 2 amides) | EC50 (HBV replication; [5]) [µM] | CC50 at 24 h (in vitro; CC50 (μM), Table 2 amides) [µM] | MIC80 [1, 6] [µM] | IC50 (human RNaseH1; [7]) [µM] | further results |
| --- | --- | --- | --- | --- | --- | --- | --- | --- | --- | --- | --- | --- |
| O=c1c(O)cccc(Sc2ccccc2)c1O [compound 691] | 0.72 | 5.69 | 43.6 | 19.5 | 1 (≈ 0.246 µg/mL) | 31.9 |  |  |  |  |  | Reduction of HSV-1 titers / suppression of HSV-1 replication at 5 μM (HSV-1; 5 μM, plaque forming units (PFU)/ml): > 3 log10 |
| CCCCSc1ccc(SCCCC)c(O)c(=O)c1O [compound 694] | 4.85 | 5.86 | 12.6 | 1.8 | 2 (≈ 0.629 µg/mL) | 127 |  |  |  |  |  | Therapeutic index (CC50/EC50) for HBV (TI, SI) (HBV replication): 0.14 |
| O=c1c(O)cccc(S(=O)(=O)c2cccc3ccccc23)c1O [compound 698] | -0.35 | 4.85 | 6.18 | 14.8 | 49 (≈ 16.1 µg/mL) | 234 |  |  |  |  |  | log reduction at 0.33 µM (HSV-1; Table 3 sulfur compounds): -0.31 |
| O=c1c(O)cccc(S)c1O [compound 701] |  | 0.94 | 7.6 | 63.9 | 5 (≈ 0.851 µg/mL) | 46 |  |  |  |  |  |  |
| O=c1c(O)c(SCc2ccccc2)ccc(SCc2ccccc2)c1O [compound 703] | 4.56 | 5.88 | 10.6 | 8.2 | 6.75 (≈ 2.58 µg/mL) | 49.6 |  |  |  |  |  |  |
| O=c1c(O)cccc(SCCc2ccccc2)c1O [compound 704] | 0.06 | 5.72 | 52 | 21.6 | 1.4 (≈ 0.384 µg/mL) | 24.7 |  |  |  |  |  | EC50 (HBV replication; HepDES19, read-out: EC50 against HBV replication): 52 µM |
| O=c1c(O)cccc(S(=O)(=O)Cc2ccccc2)c1O [compound 705] | 0.19 | 3.55 | 2.76 | 8.4 | 50 (≈ 14.6 µg/mL) | 135 |  |  |  |  |  |  |
| Cc1cc(O)c(=O)c(O)cc1C(=O)Nc1ccc(F)nc1 [compound 707] |  |  |  |  |  |  | -0.18 | 0.54 | 19.4 ± 8.4 | 36 (≈ 10.4 µg/mL) | 148 ± 22.3 | SI (CC50/EC50) (HBV replication; Table 2 amides): 36.2; SIApparent (huRH1 IC50/EC50) (human RNaseH1; Table 2 amides): 277 |
| Cc1cc(O)c(=O)c(O)cc1C(=O)Nc1ccc(F)cc1F [compound 711] |  |  |  |  |  |  | 0.32 | 0.75 ± 0.3 | 4.6 ± 0.8 | 4.5 (≈ 1.38 µg/mL) | 184 | EC50 against HBV replication (HBV replication): sub-micromolar; SI (CC50/EC50) (HBV replication; Table 2 amides): 10.2; SIApparent (huRH1 IC50/EC50) (human RNaseH1; Table 2 amides): 247 |
| Cc1cc(O)c(=O)c(O)cc1C(=O)N1CCSC1 [compound 712] |  |  |  |  |  |  | 0.36 | 0.77 ± 0.5 | 6.4 ± 0.8 | 18 (≈ 4.81 µg/mL) | 116 ± 67.6 |  |
| Cc1ccc(Sc2cccc(O)c(=O)c2O)cc1 [compound 838] | 0.05 | 5.33 | 17 | 18.6 | 1 (≈ 0.26 µg/mL) | 100 |  |  |  |  |  | HSV-2 suppression 5 μM (HSV-2): 5.09 log10 |
| O=c1c(O)cccc(Sc2cccc3ccccc23)c1O [compound 839] | -0.1 | 3.21 | 50 | 35.1 | 17 (≈ 5.04 µg/mL) | 201 |  |  |  |  |  | HSV-2 suppression 5 μM (HSV-2): 4.2 log10 |
| CCCCCCSc1cccc(O)c(=O)c1O [compound 840] | 1.52 | 3.69 | 50 | 21.5 | 1 (≈ 0.254 µg/mL) | 72.8 |  |  |  |  |  | log reduction at 0.33 µM (HSV-1; Table 3 sulfur compounds): 0.271; HSV-2 suppression 5 μM (HSV-2): 5.59 log10; MIC80 ([1]; read-out: MIC80 against C. neoformans): ≤ 1 µM |
| Cc1cc(O)c(=O)c(O)cc1C(=O)N1CCN(C2CC2)CC1 [compound 871] |  |  |  |  |  |  | -0.0192 | 1.15 ± 0.4 | 36.6 ± 3.6 | 50 (≈ 15.2 µg/mL) | 88.2 ± 43.3 | log reduction at 1 µM (HSV-1; Table 2 amides): -0.1 |
| Cc1cc(O)c(=O)c(O)cc1C(=O)N1CCN(C(=O)C2COc3ccccc3O2)CC1 (stereo not shown) [compound 876] |  |  |  |  |  |  | 0.273 | 0.7 ± 0.4 | 9.2 ± 3.2 | 9 (≈ 3.84 µg/mL) | 39.2 ± 40.6 | log reduction at 1 µM (HSV-1; Table 2 amides): -0.0739 |
